What was measured:
[1] = compound: NC(=O)CCCCC1CCSS1 [lipoamide]; assay: thermal stability z-score vs DMSO; higher = more thermally stabilized by treatment; details: HeLa, lipoamide concentration 100 µM
Procedure: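 Cellular thermal proteome profiling in HeLa cells. Cells were treated with 100 µM lipoamide for 1 h, with or without 1 mM arsenate for a further 1 h, then heated to ten temperatures (37-66.3 °C), and soluble protein was quantified by TMT mass spectrometry relative to 0.1% DMSO controls. The thermal stability score (sum of log2 fold changes minus the abundance score) was transformed to a z-score; mean of n = 3 experiments.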

[2] = compound: O=[As]([O-])(O)O.[K+] [potassium arsenate]; assay: as above; details: HeLa; arsenate concentration 1 mM
Procedure: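 Cellular thermal proteome profiling in HeLa cells treated with 1 mM arsenate for 1 h (DMSO pretreatment), heated to ten temperatures (37-66.3 °C). Soluble protein was quantified by TMT mass spectrometry relative to DMSO controls; the thermal stability score was transformed to a z-score; mean of n = 3 experiments.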

[3] = arsenate co-treatment: 1 mM arsenate 1 h
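Note: each temperature applied for 3 min, abundance score taken as mean log2 fold change at the two lowest temperatures, z-score obtained by mean subtraction and division by SD.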

Chain of UniProt Q6PI78 (Q6PI78 whole entry): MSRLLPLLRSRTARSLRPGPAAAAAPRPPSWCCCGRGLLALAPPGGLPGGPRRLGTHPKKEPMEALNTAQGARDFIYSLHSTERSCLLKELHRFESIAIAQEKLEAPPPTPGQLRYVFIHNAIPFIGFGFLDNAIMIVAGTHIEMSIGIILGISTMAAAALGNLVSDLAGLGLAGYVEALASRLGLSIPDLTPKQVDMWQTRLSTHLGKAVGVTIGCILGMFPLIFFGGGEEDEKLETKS
Chain of UniProt O00512 (O00512 whole entry): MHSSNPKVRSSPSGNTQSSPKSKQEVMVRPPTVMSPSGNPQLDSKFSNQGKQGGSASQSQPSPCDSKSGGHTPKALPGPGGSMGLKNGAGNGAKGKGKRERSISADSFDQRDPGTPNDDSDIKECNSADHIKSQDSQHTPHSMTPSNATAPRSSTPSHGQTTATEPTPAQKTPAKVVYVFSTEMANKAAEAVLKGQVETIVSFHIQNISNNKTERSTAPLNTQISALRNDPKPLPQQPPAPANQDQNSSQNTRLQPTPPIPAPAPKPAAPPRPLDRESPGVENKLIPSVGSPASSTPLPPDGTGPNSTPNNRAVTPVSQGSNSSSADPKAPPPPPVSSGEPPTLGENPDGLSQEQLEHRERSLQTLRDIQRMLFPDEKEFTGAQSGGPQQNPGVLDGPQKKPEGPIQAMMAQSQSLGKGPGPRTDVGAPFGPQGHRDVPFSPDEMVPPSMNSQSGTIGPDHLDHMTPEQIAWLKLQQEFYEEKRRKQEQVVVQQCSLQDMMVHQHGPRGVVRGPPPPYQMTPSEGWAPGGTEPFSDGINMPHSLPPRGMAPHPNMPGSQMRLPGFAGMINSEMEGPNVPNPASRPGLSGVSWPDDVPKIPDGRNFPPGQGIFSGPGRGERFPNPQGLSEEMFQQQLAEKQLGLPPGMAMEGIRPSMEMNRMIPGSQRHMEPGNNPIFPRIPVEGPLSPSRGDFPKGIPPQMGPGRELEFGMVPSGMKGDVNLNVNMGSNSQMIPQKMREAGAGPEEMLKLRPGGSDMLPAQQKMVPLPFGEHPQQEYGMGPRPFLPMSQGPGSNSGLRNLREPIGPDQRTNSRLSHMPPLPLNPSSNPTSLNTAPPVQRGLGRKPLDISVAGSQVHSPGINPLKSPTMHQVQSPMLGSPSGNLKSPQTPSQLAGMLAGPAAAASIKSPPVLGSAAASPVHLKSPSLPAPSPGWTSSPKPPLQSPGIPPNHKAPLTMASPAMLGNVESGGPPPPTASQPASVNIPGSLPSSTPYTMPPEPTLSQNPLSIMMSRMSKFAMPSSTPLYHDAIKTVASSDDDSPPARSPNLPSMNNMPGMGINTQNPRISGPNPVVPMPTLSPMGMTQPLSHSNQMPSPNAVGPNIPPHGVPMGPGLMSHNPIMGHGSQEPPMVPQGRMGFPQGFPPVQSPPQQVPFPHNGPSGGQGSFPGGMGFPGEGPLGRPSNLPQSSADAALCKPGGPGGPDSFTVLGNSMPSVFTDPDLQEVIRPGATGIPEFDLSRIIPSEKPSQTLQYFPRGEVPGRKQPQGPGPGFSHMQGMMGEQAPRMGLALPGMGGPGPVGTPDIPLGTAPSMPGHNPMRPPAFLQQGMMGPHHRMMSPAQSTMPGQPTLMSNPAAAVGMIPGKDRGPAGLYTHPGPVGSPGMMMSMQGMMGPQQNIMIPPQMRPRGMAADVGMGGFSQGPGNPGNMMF
Chain of UniProt Q16595 (Q16595 whole entry): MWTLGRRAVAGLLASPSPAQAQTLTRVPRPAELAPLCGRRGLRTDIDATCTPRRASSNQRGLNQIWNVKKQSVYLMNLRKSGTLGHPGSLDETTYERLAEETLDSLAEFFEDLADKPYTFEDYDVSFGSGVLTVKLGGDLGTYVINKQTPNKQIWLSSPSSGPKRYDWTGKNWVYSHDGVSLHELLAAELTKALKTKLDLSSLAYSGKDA
Chain of UniProt Q9H0S4 (Q9H0S4 whole entry): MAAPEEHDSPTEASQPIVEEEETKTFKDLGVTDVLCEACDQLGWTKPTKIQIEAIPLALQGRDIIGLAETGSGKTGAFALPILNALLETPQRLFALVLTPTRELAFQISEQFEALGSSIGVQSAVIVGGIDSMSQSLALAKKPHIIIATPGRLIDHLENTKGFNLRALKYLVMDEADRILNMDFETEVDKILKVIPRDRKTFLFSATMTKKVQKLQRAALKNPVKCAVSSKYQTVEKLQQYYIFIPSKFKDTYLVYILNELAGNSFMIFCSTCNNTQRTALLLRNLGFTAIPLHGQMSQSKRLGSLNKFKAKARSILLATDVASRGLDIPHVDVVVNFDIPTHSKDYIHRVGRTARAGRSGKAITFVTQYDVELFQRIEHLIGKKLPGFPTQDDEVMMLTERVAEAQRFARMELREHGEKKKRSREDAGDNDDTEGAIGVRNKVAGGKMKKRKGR
Chain of UniProt O75367 (O75367 whole entry): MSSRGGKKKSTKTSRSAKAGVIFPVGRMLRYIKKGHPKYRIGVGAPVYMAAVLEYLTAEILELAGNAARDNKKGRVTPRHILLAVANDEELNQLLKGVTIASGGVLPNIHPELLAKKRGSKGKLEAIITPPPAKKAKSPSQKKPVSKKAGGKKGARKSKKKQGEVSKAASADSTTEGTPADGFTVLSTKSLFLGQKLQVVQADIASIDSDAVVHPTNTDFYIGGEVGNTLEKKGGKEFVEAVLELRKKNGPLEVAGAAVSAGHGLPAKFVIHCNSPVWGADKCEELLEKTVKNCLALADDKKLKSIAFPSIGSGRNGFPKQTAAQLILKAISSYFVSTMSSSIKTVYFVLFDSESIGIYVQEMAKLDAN
Chain of UniProt O00401 (O00401 whole entry): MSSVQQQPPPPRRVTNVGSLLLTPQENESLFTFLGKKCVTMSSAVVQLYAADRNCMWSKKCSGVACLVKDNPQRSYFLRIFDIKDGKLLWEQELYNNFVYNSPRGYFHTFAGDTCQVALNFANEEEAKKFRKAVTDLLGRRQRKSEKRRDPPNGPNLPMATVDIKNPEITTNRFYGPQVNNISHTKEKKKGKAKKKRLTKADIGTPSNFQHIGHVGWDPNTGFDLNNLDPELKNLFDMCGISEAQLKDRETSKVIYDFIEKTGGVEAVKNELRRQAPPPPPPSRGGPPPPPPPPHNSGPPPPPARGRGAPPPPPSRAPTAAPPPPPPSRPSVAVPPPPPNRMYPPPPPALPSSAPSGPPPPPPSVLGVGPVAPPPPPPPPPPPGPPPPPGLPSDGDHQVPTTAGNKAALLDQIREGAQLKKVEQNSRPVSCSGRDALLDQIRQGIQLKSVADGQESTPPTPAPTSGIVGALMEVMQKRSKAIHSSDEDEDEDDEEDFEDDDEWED
Chain of UniProt Q9BQE4 (Q9BQE4 whole entry): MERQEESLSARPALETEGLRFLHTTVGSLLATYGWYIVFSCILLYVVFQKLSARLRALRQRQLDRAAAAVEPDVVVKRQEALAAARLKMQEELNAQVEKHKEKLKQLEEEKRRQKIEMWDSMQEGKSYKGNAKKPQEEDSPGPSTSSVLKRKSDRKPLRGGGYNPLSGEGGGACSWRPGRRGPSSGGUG
Chain of UniProt Q53H82 (Q53H82 whole entry): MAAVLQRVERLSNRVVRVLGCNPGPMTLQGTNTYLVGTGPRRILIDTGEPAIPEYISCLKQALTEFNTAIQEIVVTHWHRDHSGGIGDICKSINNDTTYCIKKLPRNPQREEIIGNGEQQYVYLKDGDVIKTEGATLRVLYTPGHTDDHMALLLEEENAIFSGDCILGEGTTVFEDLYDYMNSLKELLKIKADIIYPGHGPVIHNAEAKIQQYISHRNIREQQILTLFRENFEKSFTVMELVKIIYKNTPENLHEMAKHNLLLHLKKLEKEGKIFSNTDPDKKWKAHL
Chain of UniProt Q9Y2X7 (Q9Y2X7 whole entry): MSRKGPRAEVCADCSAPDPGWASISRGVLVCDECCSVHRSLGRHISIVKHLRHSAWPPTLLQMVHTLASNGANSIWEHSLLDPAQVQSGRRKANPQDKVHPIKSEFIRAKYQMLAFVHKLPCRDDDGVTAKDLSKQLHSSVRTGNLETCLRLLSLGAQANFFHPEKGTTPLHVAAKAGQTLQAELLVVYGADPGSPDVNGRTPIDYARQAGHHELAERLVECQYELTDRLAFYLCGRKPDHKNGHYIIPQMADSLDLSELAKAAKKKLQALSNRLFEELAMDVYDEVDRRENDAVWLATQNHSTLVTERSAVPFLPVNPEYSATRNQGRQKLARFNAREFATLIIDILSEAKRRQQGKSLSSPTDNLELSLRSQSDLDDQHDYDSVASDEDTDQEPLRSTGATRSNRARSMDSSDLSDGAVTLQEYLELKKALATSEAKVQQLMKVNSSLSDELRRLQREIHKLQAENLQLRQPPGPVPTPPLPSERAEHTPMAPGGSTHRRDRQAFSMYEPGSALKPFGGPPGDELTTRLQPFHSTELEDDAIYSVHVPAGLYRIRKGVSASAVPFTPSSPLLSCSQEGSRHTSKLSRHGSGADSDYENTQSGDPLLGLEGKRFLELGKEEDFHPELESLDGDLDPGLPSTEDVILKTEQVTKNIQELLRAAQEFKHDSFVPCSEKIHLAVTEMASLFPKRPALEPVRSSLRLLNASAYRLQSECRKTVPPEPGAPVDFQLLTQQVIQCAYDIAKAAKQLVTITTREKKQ
Chain of UniProt O43617 (O43617 whole entry): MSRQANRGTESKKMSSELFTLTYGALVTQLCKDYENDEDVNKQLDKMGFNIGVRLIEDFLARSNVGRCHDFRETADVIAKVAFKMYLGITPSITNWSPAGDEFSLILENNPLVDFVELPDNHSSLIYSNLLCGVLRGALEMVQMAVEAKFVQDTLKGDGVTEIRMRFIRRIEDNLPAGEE
Chain of UniProt Q9BUE6 (Q9BUE6 whole entry): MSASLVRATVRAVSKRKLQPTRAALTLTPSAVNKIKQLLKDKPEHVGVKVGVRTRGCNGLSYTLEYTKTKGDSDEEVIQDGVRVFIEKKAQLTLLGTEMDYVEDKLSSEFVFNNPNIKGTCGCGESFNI
Chain of UniProt Q9Y2V2 (Q9Y2V2 whole entry): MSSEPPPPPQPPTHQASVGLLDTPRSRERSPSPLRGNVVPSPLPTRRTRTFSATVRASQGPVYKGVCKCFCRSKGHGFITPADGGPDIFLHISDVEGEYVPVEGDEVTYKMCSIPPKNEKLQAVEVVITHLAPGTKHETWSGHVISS

Target	thermal stability z-score [1, 3]	thermal stability z-score ([1]; arsenate co-treatment: none)	thermal stability z-score [2]
WDR1 (UniProt O75083)	0.454	0.0649	-0.59
NDUFV2 (UniProt P19404)	0.418	-0.0827	0.966
ISCA1 (UniProt Q9BUE6)	-0.00815	0.577	0.178
HSPA12A (UniProt O43301)	-0.677	-0.446	-0.84
CCDC59 (UniProt Q9P031)	-0.52	-0.816	1.06
BCL9 (UniProt O00512)	0.363	1.23	0.421
GMIP (UniProt Q9P107)	-0.232	-0.0407	-0.0798
P3H1 (UniProt Q32P28)	-4.35	-3.23	1.2
RWDD1 (UniProt Q9H446)	0.432	0.421	0.471
ARRB2 (UniProt P32121)	-0.153	-1.1	0.28
TIMP2 (UniProt P16035)	-0.833	-0.411	0.923
MDH1 (UniProt P40925)	0.208	0.368	-1.45
JPH1 (UniProt Q9HDC5)	0.0376	0.0934	-0.105
TRAPPC6B (UniProt Q86SZ2)	-0.428	-1.19	-0.511
ITGB1 (UniProt P05556)	-0.614	-0.431	0.139
CDAN1 (UniProt Q8IWY9)	-0.217	-0.235	-0.113
CDKN2A	0.99	1.64	0.466
TRMT13 (UniProt Q9NUP7)	-0.376	-1.34	0.263
EMD (UniProt P50402)	-0.75	-0.633	-0.405
FANCG (UniProt O15287)	-0.348	-0.437	-0.507
WASL (UniProt O00401)	-0.128	0.327	-1.26
HBS1L (UniProt Q9Y450)	0.179	0.0726	-0.278
TAF15 (UniProt Q92804)	2.08	1.21	1.34
BANF1 (UniProt O75531)	0.324	-0.358	-2.36

Target	thermal stability z-score [1, 3]	thermal stability z-score ([1]; arsenate co-treatment: none)	thermal stability z-score [2]
YTHDF2 (UniProt Q9Y5A9)	-0.0393	-0.108	0.0979
YME1L1 (UniProt Q96TA2)	-0.813	-0.425	-0.298
MED20 (UniProt Q9H944)	0.506	-0.154	-0.226
FXN (UniProt Q16595)	0.688	0.447	1.14
LACTB2 (UniProt Q53H82)	-0.112	-0.0753	-0.335
MYL6B (UniProt P14649)	-0.283	0.233	-1.03
LSR (UniProt Q86X29)	0.221	-0.243	-0.177
UBE2J1 (UniProt Q9Y385)	-0.909	-0.103	0.198
TAP1 (UniProt Q03518)	-0.509	-0.0614	1.47
USP14 (UniProt P54578)	0.406	-0.143	-0.0718
CARHSP1 (UniProt Q9Y2V2)	0.147	0.812	-5.57
NCOA3 (UniProt Q9Y6Q9)	-0.0145	0.0505	-0.26
VIMP (UniProt Q9BQE4)	0.458	0.457	-0.948
SLC20A1 (UniProt Q8WUM9)	0.249	0.0269	-0.23
TEX2 (UniProt Q8IWB9)	0.11	-0.0212	0.0716
DDX47 (UniProt Q9H0S4)	1.72	0.253	0.634
WDR55 (UniProt Q9H6Y2)	0.00122	-0.679	-1.7
RPL27A (UniProt P46776)	0.419	0.401	-0.482
SP3 (UniProt Q02447)	-0.177	-0.427	-0.584
NAA25 (UniProt Q14CX7)	0.177	0.0532	-0.0259
HSPA2 (UniProt P54652)	-0.295	0.552	0.26
LAMB1 (UniProt P07942)	-3.22	-2.66	0.724
ABCF3 (UniProt Q9NUQ8)	-0.505	-0.0312	0.516
TMEM65 (UniProt Q6PI78)	-0.379	-0.204	0.128

Target	thermal stability z-score [1, 3]	thermal stability z-score ([1]; arsenate co-treatment: none)	thermal stability z-score [2]
FAM129B (UniProt Q96TA1)	0.659	0.517	-1.01
ST3GAL4 (UniProt Q11206)	-0.112	0.0672	0.726
SLC25A15 (UniProt Q9Y619)	0.309	0.0332	0.22
SYAP1 (UniProt Q96A49)	0.0475	-0.0361	0.679
ESYT1 (UniProt Q9BSJ8)	-0.86	-0.642	0.595
TRAPPC3 (UniProt O43617)	0.589	-0.0881	0.422
PFKP (UniProt Q01813)	0.365	0.542	0.0448
GIT1 (UniProt Q9Y2X7)	0.346	-0.311	-0.368
MADD (UniProt Q8WXG6)	0.198	1.4	1.3
VPRBP (UniProt Q9Y4B6)	-0.368	-0.578	0.0129
PPM1H (UniProt Q9ULR3)	-1.19	0.00662	-1.01
MRPL9 (UniProt Q9BYD2)	-0.106	0.203	0.232
UniProt F5H5P2|BCKDHA	-0.168	-0.738	0.969
RABL3 (UniProt Q5HYI8)	-0.437	-0.307	-0.0747
CDIPT (UniProt O14735)	1.05	0.638	-0.187
PLA2G15 (UniProt Q8NCC3)	-0.718	-0.487	0.38
STUB1 (UniProt Q9UNE7)	-0.065	-0.23	0.207
FKBP14 (UniProt Q9NWM8)	-3.79	-2.85	-0.591
AKAP8L (UniProt Q9ULX6)	0.0418	-0.0231	-0.163
KIAA1429 (UniProt Q69YN4)	-0.266	-0.035	-0.0736
H2AFY (UniProt O75367)	0.112	0.0481	0.327
DUSP23 (UniProt Q9BVJ7)	1.22	0.839	-0.0505
PPP2R5D (UniProt Q14738)	-0.378	-0.239	0.228

From the supplement of paper PMC12463676, “Small-molecule dissolution of stress granules by redox modulation benefits ALS models” (Nature Chemical Biology, 2025)
